Test results from patent US6583154B1, “Compounds and methods which modulate feeding behavior and related diseases” (Amgen Inc., priority 1998, dated 2003).
Structures can show the parent of a compound that is named as a salt.

System: Male BALB-C mice
Assay: IP administration of compounds in fasted male BALB-C mice, 2 hr food intake
Assay type: in vivo
Settings: Mus musculus; male BALB-C mice fasted 18-20 hr; 30 mg/kg (ip) in 2% tween; food given after 30 min, weighed 2 hr later; vs vehicle; read-out: inhibition of feeding (2 hr food intake)
From the text: Protocol For IP Administration Of Compounds In Male BALB-C Mice.
Male BALB-C mice (20-25 g)were obtained from Charles Rivers (Wilmington, Mass.) and were given at least a one week acclimation period to Amgen's animal care facilities. Animals were housed 10/cage and were provided ad libitum food and water. For testing, mice were fasted for 18-20 hr (overnight) prior to the start of the experiment. On the day of the experiment, mice were removed from group housing and placed into individual cages (without food). Test compounds or vehicle was then administered via the intraperitoneal (i.p.) route of administration. Test compounds were suspended in a 2% tween solution; the 2% tween solution was used as the vehicle treatment (control group). Group sizes for each treatment were 6-8 animals. After 30 min, premeasured food was placed into the cages. Two hours later, the food was weighed again. The difference between 2 hr weight and the premeasured weight was taken as 2 hr food intake.
In the case of `Cc1nc(N2CCCC2)c2[nH]c(-c3ccccc3)cc2n1` [Example 9, 2-Methyl-6-phenyl-4-pyrrolidinylpyrrolo[3,2-d]pyrimidine], the inhibition in vivo at 30 mg/kg is reported as ≥ 10%.
In the case of `c1ccc(-c2cc3ncnc(N4CCCCC4)c3[nH]2)cc1` [Example 30, 6-Phenyl-4-piperidylpyrrolo[3,2-d]pyrimidine Hydrochloride], the inhibition in vivo at 30 mg/kg is reported as ≥ 10%.
With `CCC1CCCCN1c1nc(C)nc2cc(-c3ccccc3)[nH]c12` (stereo not drawn) [Example 64, 2-Methyl-6-phenyl-4-(2-ethylpiperidinyl)pyrrolo[3,2-d]pyrimidine Hydrochloride Hydrate] the inhibition in vivo at 30 mg/kg was ≥ 10%.
For `CCOC(=O)c1[nH]c(-c2ccc(F)cc2)cc1N` [Example 73a, ethyl 3-amino-5-(4-fluorophenyl)pyrrole-2-carboxylate], the inhibition in vivo at 30 mg/kg was ≥ 10%.
In the case of `Cc1nc(N2CCCCC2)c2[nH]c(-c3ccccn3)cc2n1` [Example 77, 2-Methyl-4-piperidyl-6-(2-pyridyl)pyrrolo[3,2-d]pyrimidine Hydrochloride Hydrate], the inhibition in vivo at 30 mg/kg is reported as ≥ 10%.
For `Cc1nc(N2CCCCC2)c2[nH]c(C34C[C@H]5C[C@@H](C3)C[C@@H](C4)C5)cc2n1` [Example 81d, 6-Adamantanyl-2-methyl-4-piperidylpyrrolo[3,2-d]pyrimidine Hydrochloride Monohydrate], the inhibition in vivo at 30 mg/kg was ≥ 10%.
For `CCCNc1nc(N2CCCCC2)c2[nH]c(-c3ccccc3)cc2n1` [Example 93, (6-Phenyl-4-piperidylpyrrolo[3,2-d]pyrimidine-2-yl)propylamine Hydrochloride], the inhibition in vivo at 30 mg/kg was ≥ 10%.

System: Long-Evans male rats
Assay: IP administration of compounds in fasted Long-Evans male rats, 2 hr food intake
Assay type: in vivo
Settings: Rattus norvegicus; male Long Evans rats fasted 18-20 hr; 30 mg/kg (ip) in 2% tween; food given after 30 min, weighed 2 hr later; vs vehicle; read-out: inhibition of feeding (2 hr food intake)
Protocol: Protocol for IP Administration of Compounds in Fasted Long-Evans Male Rats
Male Long Evans rats (85-100 g)were obtained from Harlan (Indianapolis, Ind.) and were given at least a one week acclimation period to Ambients animal care facilities. Animals were individually housed and were provided ad libitum food and water. For testing, rats were fasted for 18-20 hr (overnight) prior to the start of the experiment. On the test day, test compounds or vehicle was administered via the intraperitoneal (i.p.) route of administration. Test compounds were suspended in a 2% tween solution; the 2% tween solution was used as the vehicle treatment (control group). Group sizes for each treatment were 6-8 animals. After 30 min, premeasured food was placed into the cages. Two hours later, the food was weighed again. The difference between 2 hr weight and the premeasured weight was taken as 2 hr food intake.
For `Cc1nc(N2CCCCC2)c2[nH]c(-c3cccc(Cl)c3)cc2n1` [Example 70e, 6-(3-Chlorophenyl)-2-methyl-4-piperidylpyrrolo[3,2-d]pyrimidine Hydrochloride Monohydrate], the inhibition in vivo at 30 mg/kg was ≥ 10%.
With `Cc1nc(N2CCCCC2)c2[nH]c(-c3ccccc3)c(C)c2n1` [Example 90, 2,7-Dimethyl-6-phenyl-4-piperidylpyrrolo[3,2-d]pyrimidine Hydrochloride Monohydrate] the inhibition in vivo at 30 mg/kg was ≥ 10%.
In the case of `Cc1nc(N2CCCCC2)c2[nH]c(-c3ccccc3F)cc2n1` [Example 102, 6-(2-Fluorophenyl)-2-methyl-4-piperidylpyrrolo[3,2-d]pyrimidine Hydrochloride Monohydrate], the inhibition in vivo at 30 mg/kg is reported as ≥ 10%.
With `Cc1nc(N2CCCCC2)c2[nH]c(C)cc2n1` [Example 104, 2,6-Dimethyl-4-piperidylpyrrolo[3,2-d]pyrimidine Hydrochloride Hydrate] the inhibition in vivo at 30 mg/kg was ≥ 10%.
For `COc1ccc(-c2cc3nc(C)nc(N4CCCCC4)c3[nH]2)cc1OC` [Example 126, 1,2-Dimethoxy-4-(2-methyl-4-piperidylpyrrolo[4,5-d]pyrimidin-6-yl)benzene Hydrochloride Hydrate], the inhibition in vivo at 30 mg/kg was ≥ 10%.
With `Cc1nc(N2CCCCC2)c2[nH]c(-c3ccc4c(c3)Cc3ccccc3-4)cc2n1` [Example 127, 6-Fluoren-2-yl-2-methyl-4-piperidylpyrrolo[3,2-d]pyrimidine Hydrochloride Hydrate] the inhibition in vivo at 30 mg/kg was ≥ 10%.
With `Cc1nc(N2CCCCC2)c2[nH]c(-c3ccc(F)cc3)c(C)c2n1` [Example 134, 6-(4-Fluorophenyl)-2,7-dimethyl-4-piperidylpyrrolo[3,2-d]pyrimidine Hydrochloride Hydrate] the inhibition in vivo at 30 mg/kg was ≥ 10%.
In the case of `Cc1nc(N2CCCCC2)c2[nH]c(-c3ccc(O)cc3)c(C)c2n1` [Example 137, 4-[2,7-Dimethyl-4-piperidylpyrrolo[4,5-d]pyrimidin-6-yl]phenol Hydrochloride Hydrate], the inhibition in vivo at 30 mg/kg is reported as ≥ 10%.
With `Cc1nc(N2CCOCC2)c2[nH]c(-c3ccc(F)c(F)c3)cc2n1` [Example 141, 4-[6-(3,4-Difluorophenyl)-2-methylpyrrolo[2,3-e]pyrimidin-4-yl]morpholine Hydrochloride] the inhibition in vivo at 30 mg/kg was ≥ 10%.
For `Cc1nc(N2CCCCC2)c2[nH]c(-c3ccc(S(C)(=O)=O)cc3)cc2n1` [Example 142, 1-[2-Methyl-4-piperidylpyrrolo[4,5-d]pyrimidin-6-yl]-4-(methylsulfonyl)benzene Hydrochloride Monohydrate], the inhibition in vivo at 30 mg/kg was ≥ 10%.
For `COc1cc(-c2cc3nc(C)nc(N4CCCCC4)c3[nH]2)cc(OC)c1OC.Cl` [Example 143, 1,2,3-Trimethoxy-5-[2-methyl-4-piperidylpyrrolo[4,5-d]pyrimidin-6-yl]benzene Hydrochloride], the inhibition in vivo at 30 mg/kg was ≥ 10%.
For `CCCCc1cc2nc(C)nc(N3CCCCC3)c2[nH]1` [Example 148, 6-Butyl-2-methyl-4-piperidylpyrrolo[3,2-d]pyrimidine Hydrochloride], the inhibition in vivo at 30 mg/kg was ≥ 10%.
With `CC(=O)c1ccc(-c2cc3nc(C)nc(N4CCCCC4)c3[nH]2)cc1` [Example 150, 1-[4-(2-Methyl-4-piperidylpyrrolo[4,5-d]pyrimidin-6-yl)phenyl]ethan-1-one Hydrochloride Hydrate] the inhibition in vivo at 30 mg/kg was ≥ 10%.
In the case of `Cc1nc(N2CCCCC2)c2[nH]c(-c3ccc4ccccc4c3)cc2n1` [Example 160, 2-Methyl-6-(2-naphthyl)-4-piperidylpyrrolo[3,2-d]pyrimidine Hydrochloride Hydrate], the inhibition in vivo at 30 mg/kg is reported as ≥ 10%.
For `Cc1nc(N2CCCCC2)c2[nH]c(CCc3ccccc3)cc2n1` [Example 168, 2-Methyl-6-(2-phenylethyl)-4-piperidylpyrrolo[3,2-d]pyrimidine Hydrochloride Hydrate], the inhibition in vivo at 30 mg/kg was ≥ 10%.
For `Cc1nc(N2CC=CC2)c2[nH]c(-c3ccc(Cl)c(Cl)c3)cc2n1` [Example 200d, 6-(3,4-Dichlorophenyl)-2-methyl-4-(3-pyrrolinyl)pyrrolo[3,2-d]pyrimidine Hydrochloride Hydrate], the inhibition in vivo at 30 mg/kg was ≥ 10%.
For `CCc1nc(N2CCc3ccccc3C2)c2[nH]c(-c3ccccc3)cc2n1` [Example 202, 2-Ethyl-6-phenyl-4-(2-1,2,3,4-tetrahydroisoquinolyl)pyrrolo[3,2-d]pyrimidine Hydrochloride Monohydrate], the inhibition in vivo at 30 mg/kg was ≥ 10%.
In the case of `CN(C)c1nc(N2CCCCC2)c2[nH]c(-c3ccccc3)cc2n1` [Example 203, Hydrochloride Hydrate], the inhibition in vivo at 30 mg/kg is reported as ≥ 10%.
For `Fc1ccc(-c2cc3nc(C4CC4)nc(N4CCCCC4)c3[nH]2)cc1` [Example 209c, 2-Cyclopropyl-6-(4-fluorophenyl)-4-piperidylpyrrolo[3,2-d]pyrimidine Hydrochloride Hydrate], the inhibition in vivo at 30 mg/kg was ≥ 10%.
For `Cc1nc(N2CC=CC2)c2oc(-c3ccccc3)cc2n1` [Example 216c, 2-Methyl-6-phenyl-4-(3-pyrrolinyl)furano[3,2-d]pyrimidine Hydrochloride Hydrate], the inhibition in vivo at 30 mg/kg was ≥ 10%.

System: not given
Assay: not given
Settings: not given
Work on `Cc1nc(N2CCCCCC2)c2[nH]c(-c3ccccc3)cc2n1` [Example 8, 4-Homopiperidyl-2-methyl-6-phenylpyrrolo[3,2-d]pyrimidine] yielded a melting point of 209 to 210 °C.
`Cc1nc(NCc2ccc(C)o2)c2[nH]c(-c3ccccc3)cc2n1` [Example 17] gave a melting point of 125 to 127.5 °C.
With `CC(C)c1nc(N2CCCCC2)c2[nH]c(-c3ccccc3)cc2n1` [Example 19d, 2-Isopropyl-6-phenyl-4-piperidylpyrrolo[3,2-d]pyrimidine] the melting point was 269.5 to 272 °C.
Work on `Cc1nc(N2CCNCC2)c2[nH]c(-c3ccccc3)cc2n1` [Example 26, 2-methyl-6-phenyl-4-piperazinylpyrrolo[3,2-d]pyrimidine] yielded a melting point of 236 °C.
`Cc1nc(NCc2ccccc2)c2[nH]c(-c3ccccc3)cc2n1` [Example 29, (2-Methyl-6-phenylpyrrolo[2,3-e]pyrimidin-4-yl)benyzlamine] showed a melting point of 275 to 276.5 °C.
Work on `Cc1nc(N2CCCCC2)c2c(cc(-c3ccccc3)n2C)n1` [Example 36, 2,5-Dimethyl-6-phenyl-4-piperidylpyrrolo[3,2-d]pyrimidine] yielded a melting point of 131 to 132 °C.
For `c1ccc(-c2nc(N3CCCCC3)c3[nH]c(-c4ccccc4)cc3n2)cc1` [Example 45d, 2,6-Diphenyl-4-piperidylpyrrolo[3,2-d]pyrimidine], the melting point was 259 to 261.5 °C.
With `CC(=O)c1c(-c2ccccc2)[nH]c2c(N3CCCCC3)nc(C)nc12` [Example 49, 7-Acetyl-2-methyl-6-phenyl-4-piperidylpyrrolo[3,2-d]pyrimidine] the melting point was 188 to 190 °C.
With `Cc1nc(N2CCCCC2)c2[nH]c(-c3cc(C(F)(F)F)cc(C(F)(F)F)c3)cc2n1.Cl` [Example 122] the melting point was > 280 °C.
For `COc1cc(-c2cc3nc(C)nc(N4CCCCC4)c3[nH]2)cc(OC)c1OC.Cl` [Example 143, 1,2,3-Trimethoxy-5-[2-methyl-4-piperidylpyrrolo[4,5-d]pyrimidin-6-yl]benzene Hydrochloride], the melting point was 275 to 277 °C.
Work on `Cc1c(-c2ccccc2)n(C)c2c(N3CCCCC3)ncnc12` [Example 155, 5,7-Dimethyl-6-phenyl-4-piperidylpyrrolo[3,2-d]pyrimidine] yielded a melting point of 123 to 125 °C.
Work on `Cc1nc(N2CCCCC2)c2[nH]c(-c3ccccc3)cc2[n+]1[O-]` [Example 184, 2-Methyl-6-phenyl-4-piperidylpyrrolo[3,2-d]pyrimidin-1-ol] yielded a melting point of 169 to 170 °C.
